Experimental data as given in patent US8658645B2, “Use of quinolone antibiotics” (Bayer Intellectual Property GmbH, priority 2003, dated 2014).
Values after ≈ are worked out from the molar mass of the structure shown. Like-named read-outs stand apart in the source and are kept apart here.

Columns and labels:
Fusobacterium = assay: Geometric mean MIC of anaerobic bacteria isolated from dogs and cats (in vitro); format: cell-based; conditions: N=11, isolated from dogs and cats, two in vitro studies, read-out: GMIC (geometric mean of the MIC values)
Text: (§1) Results of In Vitro Studies Geometric mean of the MIC values (Geometric Mean MIC; GMIC) of anaerobic bacteria isolated from dogs and cats compared to the standard metronidazole (μg/ml).

Bacteroides = assay: as above; format: cell-based; conditions: N=37, isolated from dogs and cats, two in vitro studies, read-out: GMIC (geometric mean of the MIC values)
Text: as §1

Prevotella = assay: as above; format: cell-based; conditions: N=25, isolated from dogs and cats, two in vitro studies, read-out: GMIC (geometric mean of the MIC values)
Text: as §1

Peptostreptococcus = assay: as above; format: cell-based; conditions: N=4, isolated from dogs and cats, two in vitro studies, read-out: GMIC (geometric mean of the MIC values)
Text: as §1

Porphyromonas = assay: as above; format: cell-based; conditions: N=8, isolated from dogs and cats, two in vitro studies, read-out: GMIC (geometric mean of the MIC values)
Text: as §1

Porphyromonas canons = assay: In vitro MIC, parodontitis-causing bacteria; format: cell-based; conditions: two strains
Method: (§2) In this study, in each case two strains of the parodontitis-causing bacteria were isolated, and their sensitivity to pradofloxacin was determined in vitro (MIC μg/ml).

[1] = tested on: Porphyromonas cangingivalis; assay: In vitro MIC, parodontitis-causing bacteria; format: cell-based; conditions: two strains
Method: as §2

Capnocytophaga ochracea = assay: In vitro MIC, parodontitis-causing bacteria; format: cell-based; conditions: two strains
Method: as §2

Porphyromonas gingivalis = assay: In vitro MIC, parodontitis-causing bacteria; format: cell-based; conditions: two strains
Method: as §2

[2] = tested on: Actinobacillus actinomycetemcomitans; assay: In vitro MIC, parodontitis-causing bacteria; format: cell-based; conditions: Aggregatibacter actinomycetemcomitans, two strains
Method: as §2

Eikenella corrodens = assay: In vitro MIC, parodontitis-causing bacteria; format: cell-based; conditions: two strains
Method: as §2

Porphyromonas cansulci = assay: In vitro MIC, parodontitis-causing bacteria; format: cell-based; conditions: Porphyromonas crevioricanis, two strains
Method: as §2

Fusobacterium nucleatum = assay: In vitro MIC, parodontitis-causing bacteria; format: cell-based; conditions: two strains
Method: as §2

Prevotella intermedia = assay: In vitro MIC, parodontitis-causing bacteria; format: cell-based; conditions: two strains
Method: as §2

Campylobacter rectus = assay: In vitro MIC, parodontitis-causing bacteria; format: cell-based; conditions: two strains
Method: as §2

parodontitis = assay: Clinical study for the indication parodontitis; format: in vivo; conditions: female beagles, 3 mg/kg once per day for seven days
Method: Clinical Study for the Indication Parodontitis
The study was carried out using 16 female beagles. Pradofloxacin was administered in a dose of 3 mg/kg once per day over a period of seven days.

SMILES	MIC (Fusobacterium) [µg/mL]	MIC (Bacteroides) [µg/mL]	MIC (Prevotella) [µg/mL]	MIC (Peptostreptococcus) [µg/mL]	MIC (Porphyromonas) [µg/mL]	MIC (Porphyromonas canons) [µg/mL]	MIC [1] [µg/mL]	MIC ([1]; read-out: MIC) [µg/mL]	MIC (Capnocytophaga ochracea) [µg/mL]	MIC (Porphyromonas gingivalis) [µg/mL]	MIC [2] [µg/mL]	MIC (Eikenella corrodens) [µg/mL]	MIC (Porphyromonas cansulci) [µg/mL]	MIC (Fusobacterium nucleatum) [µg/mL]	MIC (Fusobacterium nucleatum; read-out: MIC) [µg/mL]	MIC (Prevotella intermedia) [µg/mL]	MIC (Campylobacter rectus) [µg/mL]	total number of anaerobic bacteria in the periodontal pockets (parodontitis; after the treatment had ended, p<0.0001)	periodontal pocket depth (loss of attachment) (parodontitis; p=0.02)	total number of anaerobic bacteria in the periodontal pockets (parodontitis; three weeks after the treatment, day 28, p=0.0007)
Cc1ncc([N+](=O)[O-])n1CCO [metronidazole, reference compound]	1	0.7	0.4	0.8	0.3															
N#Cc1c(N2C[C@@H]3CCCN[C@@H]3C2)c(F)cc2c(=O)c(C(=O)O)cn(C3CC3)c12 [pradofloxacin, 8-cyano-1-cyclopropyl-7-((1S,6S)-2,8-diazabicyclo[4.3.0]nonan-8-yl)-6-fluoro-1,4-dihydro-4-oxo-3-quinolinecarboxylic acid]	0.5	0.4	0.2	0.4	0.1	< 0.25	1 (≈ 2.52 µM)	0.5 (≈ 1.26 µM)	< 0.25	< 0.25	< 0.25	< 0.25	< 0.25	1 (≈ 2.52 µM)	0.5 (≈ 1.26 µM)	< 0.25	< 0.25	reduced significantly	significant reduction	reduced significantly
